The NIST ThermoML archive (doi:10.1016/j.jct.2019.01.001)
Numbers after ± are expanded uncertainties.

Experiment: wn = mass fraction of the nth substance listed
Settings: 293.15 K; 100 kPa; Liquid; Vibrating tube method; w1 = 0.7

Row | SMILES | mass density [kg/m3]
1 | O=[N+]([O-])O [nitric acid] + O | 1411.5 ± 2.9

Experiment: not given
Settings: 293.15 K; 101.33 kPa; Liquid; Vibrating tube method

Row | SMILES | mass density [kg/m3]
2 | CC(=O)CC(C)C [4-methylpentan-2-one] | 800.9 ± 1.6
3 | CCn1cc[n+](C)c1.F[B-](F)(F)F [1-ethyl-3-methylimidazolium tetrafluoroborate] | 1283 ± 5.3

Now from value to compound:

Row | mass density [kg/m3] | SMILES
4 | 998.5 ± 0.4 | O [water]
5 | 791.9 ± 0.4 | CO [methanol]
6 | 810.1 ± 1.6 | CCCC(C)O (stereo unspecified) [pentan-2-ol]
